Data reported in ChEMBL document CHEMBL1123680, “The influence of physicochemical parameters on the biliary excretion of a series of nitroimidazoles” (J Med Chem, 1987).

Assays:
[1] = Percent biliary excretion property by administering intravenously to rats was reported as amount of unchanged form of compound detected in bile samples collected at 0-3 hr after the treatment.; settings: rat, iv
[2] = Percent biliary excretion property by administering intravenously to rats was reported as amount of unchanged form of compound detected in bile samples collected at 0-5 hr after the treatment.; settings: rat, iv
[3] = Percent biliary excretion property by administering intravenously to rats was reported as amount of unchanged form of compound detected in bile samples collected at 0-1 hr after the treatment.; settings: rat, iv
[4] = Percent biliary excretion property by administering intravenously to rats was reported as amount of unchanged form of compound detected in bile samples collected at 0-4 hr after the treatment.; settings: rat, iv
[5] = Percent biliary excretion property by administering intravenously to rats was reported as amount of unchanged form of compound detected in bile samples collected at 0-2 hr after the treatment.; settings: rat, iv
[6] = Partition coefficient (logP); settings: octanol/water
[7] = Percent biliary excretion property by administering intravenously to rats was reported as amount of unchanged form of compound detected in bile samples collected at 0-6 hr after the treatment.; settings: rat, iv

Row | dose excreted [1] [%] | dose excreted [2] [%] | dose excreted [3] [%] | dose excreted [4] [%] | dose excreted [5] [%] | logP [6] | dose excreted [7] [%] | Compound
1 | 25 | 31.1 | 13 | 29.2 | 19.2 | -0.69 | 32 | Cn1c([N+](=O)[O-])cnc1C=O
2 | 29.6 | 34.6 | 16.7 | 34.6 | 23.3 | – | 37.8 | Cn1c([N+](=O)[O-])cnc1CO
3 | 25 | 30.6 | 14.4 | 28.4 | 21.1 | – | 33.1 | Cn1c([N+](=O)[O-])cnc1/C=C/c1ccnc(N)n1 [AZANIDAZOLE]
4 | 5.11 | 8.42 | 1.91 | 7 | 3.43 | – | 8.94 | COC(=S)NCCn1c([N+](=O)[O-])cnc1C [CARNIDAZOLE]
5 | 9.6 | 14 | 2.99 | 11.7 | 5.37 | – | 14 | CC(C)c1ncc([N+](=O)[O-])n1C [IPRONIDAZOLE]
6 | 16.8 | 22.3 | 6.77 | 19.7 | 12.5 | – | 24.6 | Cc1ncc([N+](=O)[O-])n1CCO [METRONIDAZOLE]
7 | 6.92 | 10.7 | 3.42 | 8.71 | 5.25 | – | 11.8 | O=[N+]([O-])c1cncn1CCN1CCOCC1 [NIMORAZOLE]
8 | 10.6 | 13.5 | 1.68 | 12.3 | 7.33 | – | 14.7 | Cc1ncc([N+](=O)[O-])n1CC(O)CCl (stereo not drawn) [ORNIDAZOLE]
9 | 8.88 | 16.2 | 4 | 15.5 | 6.96 | -0.38 | 19.7 | Cn1c([N+](=O)[O-])cnc1COC(N)=O [RONIDAZOLE]
10 | 5.25 | 8.81 | 1.99 | 7.58 | 3.47 | – | 10.5 | CCS(=O)(=O)CCn1c([N+](=O)[O-])cnc1C [TINIDAZOLE]

Row | Compound | dose excreted [1] [%] | dose excreted [2] [%] | dose excreted [3] [%] | dose excreted [4] [%] | dose excreted [5] [%] | logP [6] | dose excreted [7] [%]
11 | O=[N+]([O-])c1c[nH]cn1 | 17.6 | 24.3 | 8.71 | 20.9 | 14.1 | – | 26.2
